Data reported in patent US12410160B2 (Gilead Sciences, Inc., priority 2021, dated 2025).

Tests used:
human KHK-C = human KHK-C (Homo sapiens (Human), UniProt P50053); assay: KHK Biochemical Assay (IC50), ADP-Glo, KHK-C; details: average of at least two separate assays
In short: (§1)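 His-tagged enzyme expressed in BL21 (DE3), Ni-NTA purified. Compounds, serially diluted 1:3 in DMSO, pre-incubated 30 min with enzyme in 50 mM Hepes pH 7.4, 140 mM KCl, 5 mM MgCl2, 0.01% Triton-X, then ATP and fructose added; 4 h at room temperature. ADP formation read by ADP-Glo luminescence.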

human KHK-A = human KHK-A (Homo sapiens (Human), UniProt P50053); assay: KHK Biochemical Assay (IC50), ADP-Glo, KHK-A; details: average of at least two separate assays
human KHK-A, sequence (P50053 other isoform, or with tags, fused parts or gaps): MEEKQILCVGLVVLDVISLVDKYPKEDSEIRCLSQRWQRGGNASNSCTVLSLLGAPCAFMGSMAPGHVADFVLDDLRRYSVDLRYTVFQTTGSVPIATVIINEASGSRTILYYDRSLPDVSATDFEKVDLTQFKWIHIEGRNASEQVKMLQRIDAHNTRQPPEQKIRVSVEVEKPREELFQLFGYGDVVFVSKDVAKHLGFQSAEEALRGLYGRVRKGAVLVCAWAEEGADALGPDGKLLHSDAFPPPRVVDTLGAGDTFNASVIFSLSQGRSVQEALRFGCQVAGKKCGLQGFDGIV
In short: as §1

human KHK-C, sequence (P50053 whole entry): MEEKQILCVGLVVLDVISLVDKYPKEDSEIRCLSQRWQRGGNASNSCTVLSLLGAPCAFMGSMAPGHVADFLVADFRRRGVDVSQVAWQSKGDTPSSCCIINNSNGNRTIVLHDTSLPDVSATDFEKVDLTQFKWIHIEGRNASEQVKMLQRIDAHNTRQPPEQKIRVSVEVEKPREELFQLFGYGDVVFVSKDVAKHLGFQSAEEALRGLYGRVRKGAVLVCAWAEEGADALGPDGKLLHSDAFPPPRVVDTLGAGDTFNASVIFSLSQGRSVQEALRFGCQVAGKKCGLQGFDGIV

Compound	IC50 (human KHK-C) [nM]	IC50 (human KHK-A) [nM]	IC50 (human KHK-C; ADP-Glo) [nM]	IC50 (human KHK-A; ADP-Glo) [nM]
C[C@H]1[C@H](F)CN1c1nc(-c2ccc3c(c2)COC[C@@H]3NS(C)(=O)=O)c2c(n1)C(F)(F)CC2 [Example 582, N—((R)-7-(7,7-difluoro-2-((2S,3R)-3-fluoro-2-methylazetidin-1-yl)-6,7-dihydro-5H-cyclopenta[d]pyrimidin-4-yl)isochroman-4-yl)methanesulfonamide]	0.8	7	–	–
C[C@H]1[C@@H](F)CN1c1nc(-c2ccc3c(c2)COC[C@@H]3NS(C)(=O)=O)c2c(n1)C(F)(F)CC2 [Example 583, N—((R)-7-(7,7-difluoro-2-((28,38)-3-fluoro-2-methylazetidin-1-yl)-6,7-dihydro-5H-cyclopenta[d]pyrimidin-4-yl)isochroman-4-yl)methanesulfonamide]	1.3	8.7	–	–
C[C@@H]1N(c2nc(-c3ccc4c(c3)COC[C@@H]4NS(C)(=O)=O)c3c(n2)C(F)(F)CC3)CC1(F)F [Example 584, N—((R)-7-(2-((S)-3,3-difluoro-2-methylazetidin-1-yl)-7,7-difluoro-6,7-dihydro-5H-cyclopenta[d]pyrimidin-4-yl)isochroman-4-yl)methanesulfonamide]	2.6	19.8	–	–
C[C@H]1[C@H](O)CN1c1nc(-c2ccc3c(c2)OC[C@@H]3NC2COC2)c2c(n1)C(F)(F)CC2 [Example 585, (2S,3R)-1-[7,7-difluoro-4-[(3R)-3-(oxetan-3-ylamino)-2,3-dihydrobenzofuran-6-yl]-5,6-dihydrocyclopenta[d]pyrimidin-2-yl]-2-methyl-azetidin-3-ol]	21.2	41.6	–	–
NC1(c2ccc(-c3nc(N4CC[C@@H]4C(F)(F)F)nc4c3CCC4(F)F)cc2)CCOC1 (stereo partly drawn) [Example 587, 3-[4-[7,7-difluoro-2-[(2R)-2-(trifluoromethyl)azetidin-1-yl]-5,6-dihydrocyclopenta[d]pyrimidin-4-yl]phenyl]tetrahydrofuran-3-amine]	0.4	0.5	–	–
NC1(c2ccc(-c3nc(N4CC[C@@H]4C(F)(F)F)nc4c3CCC4(F)F)cc2F)COC1 [Example 589, 3-[4-[7,7-difluoro-2-[(2R)-2-(trifluoromethyl)azetidin-1-yl]-5,6-dihydrocyclopenta[d]pyrimidin-4-yl]-2-fluoro-phenyl]oxetan-3-amine]	1.4	2.7	–	–
NC1(c2ccc(-c3nc(N4CCC4C(F)F)nc4c3CCC4(F)F)cc2)COC1 (stereo not drawn) [Example 678, 3-[4-[2-[2-(difluoromethyl)azetidin-1-yl]-7,7-difluoro-5,6-dihydrocyclopenta[d]pyrimidin-4-yl]phenyl]oxetan-3-amine]	1.8	4.6	–	–
NC1(c2ccc(-c3nc(N4CCC4C(F)(F)F)nc4c3CCC4(F)F)cc2)COC1 (stereo not drawn) [Example 683, 3-[4-[7,7-difluoro-2-[2-(trifluoromethyl)azetidin-1-yl]-5,6-dihydrocyclopenta[d]pyrimidin-4-yl]phenyl]oxetan-3-amine]	0.9	2.4	–	–
CCN1C(=O)NC2(COc3cc(-c4nc(N5C[C@@H](O)[C@@H]5C)nc5c4CCC5(F)F)ccc32)C1=O (stereo partly drawn) [Example 689, 6-[7,7-difluoro-2-[(2S,3R)-3-hydroxy-2-methyl-azetidin-1-yl]-5,6-dihydrocyclopenta[d]pyrimidin-4-yl]-3′-ethyl-spiro[2H-benzofuran-3,5′-imidazolidine]-2′,4′-dione]	0.2	14.2	–	–
CC(C)N1C(=O)NC2(COc3cc(-c4nc(N5C[C@@H](O)[C@@H]5C)nc5c4CCC5(F)F)ccc32)C1=O (stereo partly drawn) [Example 690]	0.3	45.4	–	–
O=C1NC(=O)C2(COc3cc(-c4nc(N5CC[C@@H]5C(F)(F)F)nc5c4CCC5(F)F)ccc32)N1 (stereo partly drawn) [Example 703, 6-[7,7-difluoro-2-[(2R)-2-(trifluoromethyl)azetidin-1-yl]-5,6-dihydrocyclopenta[d]pyrimidin-4-yl]spiro[2H-benzofuran-3,5′-imidazolidine]-2′,4′-dione]	0.4	1	–	–
COc1cc(-c2nc(N3C[C@@H](O)[C@@H]3C)nc3c2CCC3(F)F)cc(S(C)(=N)=O)c1 (stereo partly drawn) [Example 719, (3-(7,7-difluoro-2-((2S,3R)-3-hydroxy-2-methylazetidin-1-yl)-6,7-dihydro-5H-cyclopenta[d]pyrimidin-4-yl)-5-methoxyphenyl)(imino)(methyl)-λ^6-sulfanone]	21.7	32.1	–	–
Cc1cc(-c2nc(N3C[C@@H](O)[C@@H]3C)nc3c2CCC3(F)F)cc(S(C)(=N)=O)c1 (stereo partly drawn) [Example 720, (3-(7,7-difluoro-2-((2S,3R)-3-hydroxy-2-methylazetidin-1-yl)-6,7-dihydro-5H-cyclopenta[d]pyrimidin-4-yl)-5-methylphenyl)(imino)(methyl)-λ^6-sulfanone]	8.8	11.6	–	–
C[C@H]1[C@H](O)CN1c1nc(-c2ccc(C(F)F)c(S(C)(=N)=O)c2)c2c(n1)C(F)(F)CC2 (stereo partly drawn) [Example 721, (5-(7,7-difluoro-2-((2S,3R)-3-hydroxy-2-methylazetidin-1-yl)-6,7-dihydro-5H-cyclopenta[d]pyrimidin-4-yl)-2-(difluoromethyl)phenyl)(imino)(methyl)-λ^6-sulfanone]	23.2	28.3	–	–
NC1(c2ccc(-c3nc(N4CC[C@@H]4C(F)(F)F)nc4c3CCC4(F)F)cc2)CCS(=O)(=O)CC1 [Example 738, (R)-4-amino-4-(4-(7,7-difluoro-2-(2-(trifluoromethyl)azetidin-1-yl)-6,7-dihydro-5H-cyclopenta[d]pyrimidin-4-yl)phenyl)tetrahydro-2H-thiopyran 1,1-dioxide]	2	2	–	–
COC(=O)NC1COc2cc(-c3nc(N4C[C@@H](O)[C@@H]4C)nc4c3CCC4(F)F)cc(OC)c21 (stereo partly drawn) [Example 824, Methyl N-[6-[7,7-difluoro-2-[(2S,3R)-3-hydroxy-2-methyl-azetidin-1-yl]-5,6-dihydrocyclopenta[d]pyrimidin-4-yl]-4-methoxy-2,3-dihydrobenzofuran-3-yl]carbamate]	–	–	8.6	91.6
COc1cc(-c2nc(N3CC[C@@H]3C(F)(F)F)nc3c2CCC3(F)F)ccc1C1(N)COC1 [Example 837, (R)-3-(4-(7,7-difluoro-2-(2-(trifluoromethyl)azetidin-1-yl)-6,7-dihydro-5H-cyclopenta[d]pyrimidin-4-yl)-2-methoxyphenyl)oxetan-3-amine]	–	–	0.7	1
C[C@H]1[C@H](O)CN1c1nc(-c2ccc(C3(N)CCOCC3)cc2)c2c(n1)C(F)(F)CC2 [Example 838, (2S,3R)-1-(4-(4-(4-aminotetrahydro-2H-pyran-4-yl)phenyl)-7,7-difluoro-6,7-dihydro-5H-cyclopenta[d]pyrimidin-2-yl)-2-methylazetidin-3-ol]	–	–	4.1	4.8
C[C@H]1CCN1c1nc2c(c(-c3ccc(OCc4ccccc4)c(S(C)(=N)=O)c3)n1)CCC2 (stereo partly drawn) [Example 839, (2-(benzyloxy)-5-(2-((S)-2-methylazetidin-1-yl)-6,7-dihydro-5H-cyclopenta[d]pyrimidin-4-yl)phenyl)(imino)(methyl)4^6-sulfanone]	–	–	15.9	15.8
COc1ccc(-c2nc(N3CC[C@@H]3C)nc3c2CCC3)cc1S(=N)(=O)C1CCOCC1 (stereo partly drawn) [Example 840, imino(2-methoxy-5-(2-((S)-2-methylazetidin-1-yl)-6,7-dihydro-5H-cyclopenta[d]pyrimidin-4-yl)phenyl)(tetrahydro-2H-pyran-4-yl)-λ^6-sulfanone]	–	–	26.3	7.7
C[C@H]1CCN1c1nc2c(c(-c3ccc(C(N)=O)c(Cc4ccccc4)c3)n1)CCC2 [Example 841, (S)-2-benzyl-4-(2-(2-methylazetidin-1-yl)-6,7-dihydro-5H-cyclopenta[d]pyrimidin-4-yl)benzamide]	–	–	40.5	28.1
C[C@H]1CCN1c1nc2c(c(-c3ccc(C(N)=O)c(SCc4ccccc4)c3)n1)CCC2 [Example 842, (S)-2-(benzylthio)-4-(2-(2-methylazetidin-1-yl)-6,7-dihydro-5H-cyclopenta[d]pyrimidin-4-yl)benzamide]	–	–	576	304
C[C@H]1CCN1c1nc2c(c(-c3ccc(C(N)=O)c(C(=O)c4ccccc4)c3)n1)CCC2 [Example 843, (S)-2-benzoyl-4-(2-(2-methylazetidin-1-yl)-6,7-dihydro-5H-cyclopenta[d]pyrimidin-4-yl)benzamide]	–	–	80.8	130
COc1ccc(-c2nc(N3CC[C@@H]3C)nc3c2CCC3)cc1S(=N)(=O)CC1COCOC1 (stereo partly drawn) [Example 844, ((1,3-dioxan-5-yl)methyl)(imino)(2-methoxy-5-(2-((S)-2-methylazetidin-1-yl)-6,7-dihydro-5H-cyclopenta[d]pyrimidin-4-yl)phenyl)-λ^6-sulfanone]	–	–	8.5	2.5
COc1ccc(-c2nc(N3CC[C@@H]3C)nc3c2CCC3)cc1S(=N)(=O)c1ccc(C#N)c(Cl)c1 (stereo partly drawn) [Example 845, 2-chloro-4-(2-methoxy-5-(2-((S)-2-methylazetidin-1-yl)-6,7-dihydro-5H-cyclopenta[d]pyrimidin-4-yl)phenylsulfonimidoyl)benzonitrile]	–	–	182	47
COc1ccc(-c2nc(N3CC[C@@H]3C)nc3c2CCC3)cc1S(=N)(=O)c1ccc(C#N)cc1C (stereo partly drawn) [Example 846, 4-(2-methoxy-5-(2-((S)-2-methylazetidin-1-yl)-6,7-dihydro-5H-cyclopenta[d]pyrimidin-4-yl)phenylsulfonimidoyl)-3-methylbenzonitrile]	–	–	46.1	33.6
C[C@H]1CCN1c1nc2c(c(-c3cccc(S(=N)(=O)c4ccc(C#N)cc4C4CC4)c3)n1)CCC2 (stereo partly drawn) [Example 847]	–	–	118	200
